Biological target: T1, PD-1/PD-L1 (Homo sapiens, UniProt Q9NZQ7)
T1 construct: made in house; host or cells: HEK293T
Test: PD-1/PD-L1 Homogenous Time-Resolved Fluorescence (HTRF) binding assay
Details: PD-L1-His 10 nM, PD-1-Ig 20 nM; value given as range class; read-out: Range or IC50
Summary of the method: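 Read-out is time-resolved FRET between europium cryptate-labelled anti-Ig (1 nM final) and APC-labelled anti-His (20 nM final), both dispensed onto the binding mix. Assay buffer: dPBS containing 0.1% bovine serum albumin and 0.05% Tween-20.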

T1 sequence (Q9NZQ7 with tags, fused parts or gaps): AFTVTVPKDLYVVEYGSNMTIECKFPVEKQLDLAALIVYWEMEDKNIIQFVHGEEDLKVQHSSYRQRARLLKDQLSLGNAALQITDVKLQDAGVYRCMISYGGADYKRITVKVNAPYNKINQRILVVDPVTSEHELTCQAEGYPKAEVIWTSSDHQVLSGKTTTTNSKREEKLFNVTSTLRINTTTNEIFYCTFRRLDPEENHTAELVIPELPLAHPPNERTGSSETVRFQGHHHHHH

| IC50 | Compound |
| --- | --- |
| 0.21 to 10 nM | Cc1c(COc2cc(OCc3cncc(S(C)(=O)=O)c3)c(CN3CCCC[C@H]3C(=O)O)cc2Cl)cccc1-c1cccc(OCCCN2CCC(CO)(C(=O)O)C2)c1Cl (single isomer, unassigned) [Example 1065] |
| 0.21 to 10 nM | Cc1c(CCCCN2CC[C@@H](O)C2)cccc1-c1cccc(COc2cc(OCc3cncc(C#N)c3)c(CN3C[C@@H](O)C[C@H]3C(=O)O)cc2Cl)c1C [Example 4063, (2S,4S)-1-(5-chloro-2-((5-cyanopyridin-3-yl)methoxy)-4-((3′-(4-((R)-3-hydroxypyrrolidin-1-yl)butyl)-2,2′-dimethyl-[1,1′-biphenyl]-3-yl)methoxy)benzyl)-4-hydroxypyrrolidine-2-carboxylic Acid] |
| 100 to 2000 nM | CNC(=O)c1cccc(-c2cccc(COc3cc(OCc4cc(F)cc(F)c4)c(CN4C[C@@H](O)C[C@H]4C(=O)O)cc3Cl)c2C)c1C [Example 4026, (2S,4S)-1-(5-chloro-2-((3,5-difluorobenzyl)oxy)-4-((2,2′-dimethyl-3′-(methylcarbamoyl)-[1,1′-biphenyl]-3-yl)methoxy)benzyl)-4-hydroxypyrrolidine-2-carboxylic Acid] |
| 0.21 to 10 nM | Cc1c(COc2cc(OCc3cncc(C#N)c3)c(CN3CCCC[C@H]3C(=O)O)cc2Cl)cccc1-c1cccc(OCCCN2CCC[C@@H](O)C2)c1 [Example 1018, (S)-1-(5-chloro-2-((5-cyanopyridin-3-yl)methoxy)-4-((3′-(3-((R)-3-hydroxypiperidin-1-yl)propoxy)-2-methyl-[1,1′-biphenyl]-3-yl)methoxy)benzyl)piperidine-2-carboxylic Acid] |
| 0.21 to 10 nM | Cc1c(COc2cc(OCc3cncc(C#N)c3)c(CN[C@@](C)(CO)C(=O)O)cc2Cl)cccc1-c1ccc2c(c1C)OCCO2 [Example 3041, (2S)-2-((5-chloro-2-((5-cyanopyridin-3-yl)methoxy)-4-((2-methyl-3-(5-methyl-2,3-dihydrobenzo[b][1,4]dioxin-6-yl)benzyl)oxy)benzyl)amino)-3-hydroxy-2-methylpropanoic Acid] |
| 0.21 to 10 nM | Cc1c(COc2cc(OCc3cncc(C#N)c3)c(CNC[C@H](O)CO)cc2Cl)cccc1-c1cccc(OCCCN(C)CCC(N)=O)c1Cl [Example 2032, (S)-3-((3-((2-chloro-3′-((2-chloro-5-((5-cyanopyridin-3-yl)methoxy)-4-(((2,3-dihydroxypropyl)amino)methyl)phenoxy)methyl)-2′-methyl-[1,1′-biphenyl]-3-yl)oxy)propyl)(methyl)amino)propanamide] |
| 0.21 to 10 nM | COC(=O)C1(O)CCN(CCCOc2cccc(-c3cccc(COc4cc(OCc5cncc(C#N)c5)c(CN[C@](C)(CO)C(=O)O)cc4Cl)c3C)c2C)C1 (stereo partly drawn) [Example 1046, (2R)-2-((5-chloro-2-((5-cyanopyridin-3-yl)methoxy)-4-((3′-(3-(3-hydroxy-3-(methoxycarbonyl)pyrrolidin-1-yl)propoxy)-2,2′-dimethyl-[1,1′-biphenyl]-3-yl)methoxy)benzyl)amino)-3-hydroxy-2-methylpropanoic Acid] |
| 0.21 to 10 nM | Cc1c(COc2cc(OCc3cncc(C#N)c3)c(CN[C@H](CO)C(=O)O)cc2Cl)cccc1-c1cccc(OCCCN2CC[C@@H](O)C2)c1 [Example 1016, (R)-2-((5-chloro-2-((5-cyanopyridin-3-yl)methoxy)-4-((3′-(3-((R)-3-hydroxypyrrolidin-1-yl)propoxy)-2-methyl-[1,1′-biphenyl]-3-yl)methoxy)benzyl)amino)-3-hydroxypropanoic Acid] |
| 0.21 to 10 nM | Cc1c(COc2cc(OCc3cncc(C#N)c3)c(CN3CCCC[C@H]3C(=O)O)cc2Cl)cccc1-c1cccc(OCCCN2C[C@H](O)C[C@H]2C(=O)O)c1C [Example 2241, (2S)-1-(4-((3′-(3-((2S,4R)-2-carboxy-4-hydroxypyrrolidin-1-yl)propoxy)-2,2′-dimethylbiphenyl-3-yl)methoxy)-5-chloro-2-((5-cyanopyridin-3-yl)methoxy)benzyl)piperidine-2-carboxylic Acid] |

Source: patent publication US10745382B2 (BRISTOL-MYERS SQUIBB COMPANY, priority 2015, dated 2020)
